Results reported in PMC6081437, “The potency of the broad spectrum bacteriocin, bactofencin A, against staphylococci is highly dependent on primary structure, N-terminal charge and disulphide formation” (Scientific Reports, 2018).
Bridge positions count the residues as written; N and C are the ends. Square brackets hold non-standard residues; d marks the D form. Ends that are not written are not given here. Peptide text beside a SMILES is read from it.

System: S. aureus DPC5246
Type: cell-based, Staphylococcus aureus
Conditions: for Activity (Minimum Inhibitory Concentration, MIC): DPC5246, pH 6.8; for fold reduction in activity compared with bactofencin A (wild type): S. aureus DPC5246, agar well diffusion MIC
Experimental: Peptides were resuspended at 1000 µM in 50 mM sodium phosphate buffer pH 6.8 and checked for purity by MALDI-TOF-MS. Peptides were serially diluted 1 in 4 to give a dilution series of 250, 62.50, 15.63, 3.91, 0.98 and 0.24 µM and assayed by the agar well diffusion assay described by Ryan et al.[19]. Briefly, 50 µl aliquots of each peptide concentration were plated on a S. aureus DPC5246 indicator plate and the plate incubated at 37 °C. Peptide activity (Minimum Inhibitory Concentration (MIC)) was taken as the lowest concentration of peptide to give a zone of inhibition. All assays were performed in triplicate. The dilution series values were rounded to the nearest whole number to give 1000, 250, 63, 16, 4, 1 and 0.25 µM and data is colour coded for ease of interpretation.

Row | Compound | Activity (Minimum Inhibitory Concentration, MIC) | fold reduction in activity compared with bactofencin A (wild type)
1 | CSCC[C@@H]1NC(=O)CNC(=O)[C@H]([C@@H](C)O)NC(=O)[C@@H]2CCCN2C(=O)[C@H](CCSC)NC(=O)[C@H](C)NC(=O)[C@H](CC(N)=O)NC(=O)[C@H](CC(N)=O)NC(=O)[C@H](Cc2ccc(O)cc2)NC(=O)[C@H](C(C)C)NC(=O)[C@H](CCCNC(=N)N)NC(=O)[C@@H](NC(=O)[C@H](CCCNC(=N)N)NC(=O)[C@H](Cc2c[nH]cn2)NC(=O)[C@H](CCCCN)NC(=O)[C@H](CCCCN)NC(=O)[C@H](CCCNC(=N)N)NC(=O)[C@@H](N)CCCCN)CSSC[C@@H](C(=O)O)NC(=O)[C@H](Cc2c[nH]c3ccccc23)NC(=O)[C@H](CCCNC(=N)N)NC(=O)[C@H](Cc2ccc(O)cc2)NC1=O [G13A] (H-KRKKHRCRVYNNAMPTGMYRWC-OH; disulfide 7-22) | 16 µM | –
2 | CSCC[C@@H]1NC(=O)CNC(=O)[C@H]([C@@H](C)O)NC(=O)[C@@H]2CCCN2C(=O)[C@H](CCSC)NC(=O)CNC(=O)[C@H](CC(N)=O)NC(=O)[C@H](CC(N)=O)NC(=O)[C@H](Cc2ccc(O)cc2)NC(=O)[C@@H](C(C)C)NC(=O)[C@H](CCCNC(=N)N)NC(=O)[C@@H](NC(=O)[C@H](CCCNC(=N)N)NC(=O)[C@H](Cc2c[nH]cn2)NC(=O)[C@H](CCCCN)NC(=O)[C@H](CCCCN)NC(=O)[C@H](CCCNC(=N)N)NC(=O)[C@@H](N)CCCCN)CSSC[C@@H](C(=O)O)NC(=O)[C@H](Cc2c[nH]c3ccccc23)NC(=O)[C@H](CCCNC(=N)N)NC(=O)[C@H](Cc2ccc(O)cc2)NC1=O [V9Vd] (H-KRKKHRCR[dV]YNNGMPTGMYRWC-OH; disulfide 7-22; N-terminus assumed) | 63 µM | 63 fold
3 | CSCC[C@@H]1NC(=O)CNC(=O)[C@H](CC(N)=O)NC(=O)[C@H](CC(N)=O)NC(=O)[C@H](Cc2ccc(O)cc2)NC(=O)[C@H](C(C)C)NC(=O)[C@H](CCCNC(=N)N)NC(=O)[C@@H](NC(=O)[C@H](CCCNC(=N)N)NC(=O)[C@H](Cc2c[nH]cn2)NC(=O)[C@H](CCCCN)NC(=O)[C@H](CCCCN)NC(=O)[C@H](CCCNC(=N)N)NC(=O)[C@@H](N)CCCCN)CSSC[C@@H](C(=O)O)NC(=O)[C@H](Cc2c[nH]c3ccccc23)NC(=O)[C@H](CCCNC(=N)N)NC(=O)[C@H](Cc2ccc(O)cc2)NC(=O)[C@@H](CCSC)NC(=O)CNC(=O)[C@H]([C@@H](C)O)NC(=O)[C@@H]2CCCN2C1=O [M18Md] (H-KRKKHRCRVYNNGMPTG[dM]YRWC-OH; disulfide 7-22; N-terminus assumed) | 16 µM | –
4 | KRKKHRARVYNNGMPTGMYRWC-OH [C7A] | 16 µM | 16 fold
5 | KRKKHRARVYNNGMPTGMYRWA [C7A-C22A] | 16 µM | 16 fold
6 | CSCC[C@@H]1NC(=O)CNC(=O)[C@H]([C@@H](C)O)NC(=O)[C@@H]2CCCN2C(=O)[C@H](CCSC)NC(=O)CNC(=O)[C@H](CC(N)=O)NC(=O)[C@H](CC(N)=O)NC(=O)[C@H](Cc2ccc(O)cc2)NC(=O)[C@H](C)NC(=O)[C@H](CCCNC(=N)N)NC(=O)[C@@H](NC(=O)[C@H](CCCNC(=N)N)NC(=O)[C@H](Cc2c[nH]cn2)NC(=O)[C@H](CCCCN)NC(=O)[C@H](CCCCN)NC(=O)[C@H](CCCNC(=N)N)NC(=O)[C@@H](N)CCCCN)CSSC[C@@H](C(=O)O)NC(=O)[C@H](Cc2c[nH]c3ccccc23)NC(=O)[C@H](CCCNC(=N)N)NC(=O)[C@H](Cc2ccc(O)cc2)NC1=O [V9A] (H-KRKKHRCRAYNNGMPTGMYRWC-OH; disulfide 7-22) | 4 µM | –
7 | KRKKHRSRVYNNGMPTGMYRWS [C7S-C22S] | 63 µM | –
8 | KRKKHRSRVYNNGMPTGMYRWC-OH [C7S] | 63 µM | 63 fold
